Data reported in patent US20110319464A1, “METHODS FOR TREATING BENIGN PROSTATIC HYPERPLASIA” (KISSEI PHARMACEUTICAL CO., LTD., priority 2007, published 2011).

Assays:
clinical = details: male, human
symptoms of BPH [1] = experiment: Study E: 8 mg Silodosin Once Daily (SI04010), U.S. Phase 3 Study; format: in vivo, human; details: 8 mg once daily
Excerpt: In addition, the results for IPSS/AUASS for studies A, B, D and E are illustrated in FIGS. 3 to 6, respectively, and the results for Qmax for studies A, B, D and E are illustrated in FIGS. 7 to 10, respectively.

[2] = Pharmacokinetic Study on Silodosin (Study US011), once daily for seven days, fed state; details: for Cmax: Day 7, mean (SD)
symptoms of BPH [3] = experiment: Study C: 4 mg or 8 mg Silodosin Once Daily (KMD-3213-US021-99), U.S. Phase 2 Study; format: in vivo, human; details: for Incidence of Adverse Events: Dizziness / Incidence of Adverse Events: Orthostatic Hypotension / Incidence of Adverse Events: Syncope / Mean Change From Baseline (CFB) in Maximum Flow Rate / IPSS/AUASS baseline value / Maximum Flow Rate baseline value / Mean Change From Baseline (CFB) in IPSS/AUASS: Study C; for IPSS/AUASS baseline value / Maximum Flow Rate baseline value: Week 0
Experimental: The 6-week stable dosing period was preceded by a 4-week placebo lead-in and a 2-week titration period. […] Male patients were selected who were at least 45 years of age with signs and symptoms of BPH (AUASS of 13 and maximum urine flow rate between 4 and 15 mL/sec). In addition, the results for IPSS/AUASS for studies A, B, D and E are illustrated in FIGS. 3 to 6, respectively, and the results for Qmax for studies A, B, D and E are illustrated in FIGS. 7 to 10, respectively.

[4] = immediate-release dosage form once daily, steady state
[5] = 4 mg once daily, Visit 3 (Day 29), Post-dose (2-6 hr), LOCF
[6] = 4 mg once daily, Visit 4 (Day 36), LOCF
[7] = 4 mg once daily, Visit 4 (Day 36), Post-dose (2-6 hr), LOCF
[8] = 4 mg once daily, Visit 5 (Day 43), LOCF
[9] = 4 mg once daily, Visit 5 (Day 43), Post-dose (2-6 hr), LOCF
[10] = 4 mg once daily, Visit 6 (Day 64), LOCF
[11] = 4 mg once daily, Visit 6 (Day 64), Post-dose (2-6 hr), LOCF
[12] = 4 mg once daily, Visit 7 (EOS, Day 84), LOCF
[13] = 4 mg once daily, Visit 7 (EOS, Day 84), Post-dose (2-6 hr), LOCF
[14] = 8 mg once daily, Visit 3 (Day 29), Post-dose (2-6 hr), LOCF
[15] = 8 mg once daily, Visit 4 (Day 36), LOCF
[16] = 8 mg once daily, Visit 4 (Day 36), Post-dose (2-6 hr), LOCF
[17] = 8 mg once daily, Visit 5 (Day 43), LOCF
[18] = 8 mg once daily, Visit 5 (Day 43), Post-dose (2-6 hr), LOCF
[19] = 8 mg once daily, Visit 6 (Day 64), LOCF
[20] = 8 mg once daily, Visit 6 (Day 64), Post-dose (2-6 hr), LOCF
[21] = 8 mg once daily, Visit 7 (EOS, Day 84), LOCF
[22] = 8 mg once daily, Visit 7 (EOS, Day 84), Post-dose (2-6 hr), LOCF

## C[C@H](Cc1cc2c(c(C(N)=O)c1)N(CCCO)CC2)NCCOc1ccccc1OCC(F)(F)F [Silodosin]
clinical; in vivo, 8 mg
  concentration at 12 h: 9.45 ng/mL
clinical; plasma, 4 mg
  Cmax: 27.6 ng/mL
  Tmax: 2 h
  concentration at 0.3 h: 0 ng/mL
  concentration at 8 h: 4.83 ng/mL
  concentration at 12.25 h: 1.8 ng/mL
  concentration at 13 h: 9.77 ng/mL
  concentration at 14 h: 31.5 ng/mL
  concentration at 15 h: 32.5 ng/mL
  concentration at 18 h: 7.89 ng/mL
  concentration at 20 h: 5.93 ng/mL
  half-life: 10.7 h
clinical; plasma, 8 mg
  Cmax: 63.2 ng/mL
  Tmax: 1.5 h
  concentration at 145.5 h: 67.9 ng/mL
  half-life: 11.2 h
clinical; plasma, oral, 8 mg
  concentration at 2 h: 54.6 ng/mL
  concentration at 3 h: 42.8 ng/mL
  concentration at 4 h: 33.2 ng/mL
  concentration at 6 h: 18.5 ng/mL
Symptoms of BPH [1]
  Incidence of Adverse Events: Dizziness: 3.9 % of patients
  Incidence of Adverse Events: Orthostatic Hypotension: 2.6 % of patients
Symptoms of BPH [1]; 2-6 hrs after 1st dose
  Mean Change From Baseline (CFB) in Maximum Flow Rate: 2.9 mL/s
Symptoms of BPH [1]; Week 0
  IPSS/AUASS baseline value: 21.2
  Maximum Flow Rate baseline value: 8.4 mL/s
Symptoms of BPH [1]; Week 0.5
  Mean Change From Baseline (CFB) in IPSS/AUASS: −4.4
Symptoms of BPH [1]; Week 1
  Mean Change From Baseline (CFB) in IPSS/AUASS: −5.0
  Mean Change From Baseline (CFB) in Maximum Flow Rate: 2.9 mL/s
Symptoms of BPH [1]; Week 2
  Mean Change From Baseline (CFB) in IPSS/AUASS: −5.6
  Mean Change From Baseline (CFB) in Maximum Flow Rate: 2.9 mL/s
Symptoms of BPH [1]; Week 4
  Mean Change From Baseline (CFB) in IPSS/AUASS: −6.2
  Mean Change From Baseline (CFB) in Maximum Flow Rate: 2.7 mL/s
Symptoms of BPH [1]; Week 12
  Mean Change From Baseline (CFB) in IPSS/AUASS: −6.6
  Mean Change From Baseline (CFB) in Maximum Flow Rate: 3.1 mL/s
Symptoms of BPH [1]; one subject, using excluded medication Prazosin
  Incidence of Adverse Events: Syncope: 0.4^1 % of patients
[2]; 4 mg once daily, Day 1, mean
  AUC: 169.0 ng/mL
[2]; 4 mg once daily, Day 7
  Mean Tmax: 3.0 h
[2]; 4 mg once daily, Day 7, mean
  AUC: 171 ng/mL
  t ½: 12.5 h
[2]; 4 mg once daily
  Cmax: 37.2 (18.7) ng/ml
[2]; 8 mg once daily, Day 1, mean
  AUC: 413.0 ng/mL
[2]; 8 mg once daily, Day 7, mean
  AUC: 396 ng/mL
  t ½: 10.6 h
[2]; 8 mg once daily
  Cmax: 73.4 (32.4) ng/ml
[2]; [4]
  time after administration at which Cmax is reached: about 2 hours
  time after administration at which plasma concentration falls to near baseline: about 12 hours
Symptoms of BPH [3]; [5]
  Q-max, Mean (SD): 12.2 (4.4) ml/sec
  Q-max, Mean change (SD): 2.5 (3.6) ml/sec
Symptoms of BPH [3]; 4 mg once daily, Visit 3 (baseline, Day 29), Pre-dose, LOCF
  Q-max, Mean (SD): 9.7 (3.0) ml/sec
Symptoms of BPH [3]; 4 mg once daily, Visit 3 (baseline, Day 29), modified intent to treat (LOCF)
  Total IPSS/AUASS Score, Mean (SD): 19.7 (5.1)
Symptoms of BPH [3]; [6]
  Total IPSS/AUASS Score, Mean (SD): 17.3 (5.6)
  Total IPSS/AUASS Score, Mean change (SD): −2.4 (4.0)
Symptoms of BPH [3]; [7]
  Q-max, Mean (SD): 12.4 (4.7) ml/sec
  Q-max, Mean change (SD): 2.7 (4.4) ml/sec
Symptoms of BPH [3]; [8]
  Total IPSS/AUASS Score, Mean (SD): 15.5 (5.6)
  Total IPSS/AUASS Score, Mean change (SD): −4.2 (4.5)
Symptoms of BPH [3]; [9]
  Q-max, Mean (SD): 12.2 (4.7) ml/sec
  Q-max, Mean change (SD): 2.6 (4.2) ml/sec
Symptoms of BPH [3]; [10]
  Total IPSS/AUASS Score, Mean (SD): 14.6 (6.0)
  Total IPSS/AUASS Score, Mean change (SD): −5.1 (5.1)
Symptoms of BPH [3]; [11]
  Q-max, Mean (SD): 12.0 (4.3) ml/sec
  Q-max, Mean change (SD): 2.3 (4.1) ml/sec
Symptoms of BPH [3]; [12]
  Total IPSS/AUASS Score, Mean (SD): 13.9 (6.0)
  Total IPSS/AUASS Score, Mean change (SD): −5.7 (5.5)
Symptoms of BPH [3]; [13]
  Q-max, Mean (SD): 12.6 (4.4) ml/sec
  Q-max, Mean change (SD): 2.9 (4.0) ml/sec
Symptoms of BPH [3]; [14]
  Q-max, Mean (SD): 11.7 (3.5) ml/sec
  Q-max, Mean change (SD): 2.0 (3.1) ml/sec
Symptoms of BPH [3]; 8 mg once daily, Visit 3 (baseline, Day 29), Pre-dose, LOCF
  Q-max, Mean (SD): 9.6 (2.7) ml/sec
Symptoms of BPH [3]; 8 mg once daily, Visit 3 (baseline, Day 29), modified intent to treat (LOCF)
  Total IPSS/AUASS Score, Mean (SD): 20.8 (5.3)
Symptoms of BPH [3]; [15]
  Total IPSS/AUASS Score, Mean (SD): 18.0 (6.0)
  Total IPSS/AUASS Score, Mean change (SD): −2.7 (3.7)
Symptoms of BPH [3]; [16]
  Q-max, Mean (SD): 12.5 (4.8) ml/sec
  Q-max, Mean change (SD): 2.9 (4.4) ml/sec
Symptoms of BPH [3]; [17]
  Total IPSS/AUASS Score, Mean (SD): 16.5 (6.0)
  Total IPSS/AUASS Score, Mean change (SD): −4.3 (3.9)
Symptoms of BPH [3]; [18]
  Q-max, Mean (SD): 12.5 (5.7) ml/sec
  Q-max, Mean change (SD): 2.9 (5.4) ml/sec
Symptoms of BPH [3]; [19]
  Total IPSS/AUASS Score, Mean (SD): 15.9 (6.4)
  Total IPSS/AUASS Score, Mean change (SD): −4.9 (4.6)
Symptoms of BPH [3]; [20]
  Q-max, Mean (SD): 12.9 (5.6) ml/sec
  Q-max, Mean change (SD): 3.2 (5.5) ml/sec
Symptoms of BPH [3]; [21]
  Total IPSS/AUASS Score, Mean (SD): 14.0 (6.5)
  Total IPSS/AUASS Score, Mean change (SD): −6.8 (5.8)
Symptoms of BPH [3]; [22]
  Q-max, Mean (SD): 13.0 (5.8) ml/sec
  Q-max, Mean change (SD): 3.5 (5.7) ml/sec
Symptoms of BPH [3]; 4 mg once daily
  Incidence of Adverse Events: Dizziness: 9.1 % of patients
  Incidence of Adverse Events: Orthostatic Hypotension: 4.5 % of patients
  Incidence of Adverse Events: Syncope: 0 % of patients
  IPSS/AUASS baseline value: 19.7
  Maximum Flow Rate baseline value: 9.7 mL/s
Symptoms of BPH [3]; 4 mg once daily, 2-6 hrs after 1st dose
  Mean Change From Baseline (CFB) in Maximum Flow Rate: 2.5 mL/s
Symptoms of BPH [3]; 4 mg once daily, Week 1
  Mean Change From Baseline (CFB) in IPSS/AUASS: −2.4
  Mean Change From Baseline (CFB) in Maximum Flow Rate: 2.7 mL/s
Symptoms of BPH [3]; 4 mg once daily, Week 2
  Mean Change From Baseline (CFB) in IPSS/AUASS: −4.2
  Mean Change From Baseline (CFB) in Maximum Flow Rate: 2.6 mL/s
Symptoms of BPH [3]; 4 mg once daily, Week 5
  Mean Change From Baseline (CFB) in IPSS/AUASS: −5.1
  Mean Change From Baseline (CFB) in Maximum Flow Rate: 2.3 mL/s
Symptoms of BPH [3]; 4 mg once daily, Week 8
  Mean Change From Baseline (CFB) in IPSS/AUASS: −5.7
  Mean Change From Baseline (CFB) in Maximum Flow Rate: 2.9 mL/s
Symptoms of BPH [3]; 8 mg once daily
  Incidence of Adverse Events: Dizziness: 5.6 % of patients
  Incidence of Adverse Events: Orthostatic Hypotension: 3.3 % of patients
  Incidence of Adverse Events: Syncope: 0 % of patients
  IPSS/AUASS baseline value: 20.8
  Maximum Flow Rate baseline value: 9.6 mL/s
Symptoms of BPH [3]; 8 mg once daily, 2-6 hrs after 1st dose
  Mean Change From Baseline (CFB) in Maximum Flow Rate: 2.0 mL/s
Symptoms of BPH [3]; 8 mg once daily, Week 1
  Mean Change From Baseline (CFB) in IPSS/AUASS: −2.7
  Mean Change From Baseline (CFB) in Maximum Flow Rate: 2.9 mL/s
Symptoms of BPH [3]; 8 mg once daily, Week 2
  Mean Change From Baseline (CFB) in IPSS/AUASS: −4.3
  Mean Change From Baseline (CFB) in Maximum Flow Rate: 2.9 mL/s
Symptoms of BPH [3]; 8 mg once daily, Week 5
  Mean Change From Baseline (CFB) in IPSS/AUASS: −4.9
  Mean Change From Baseline (CFB) in Maximum Flow Rate: 3.2 mL/s
Symptoms of BPH [3]; 8 mg once daily, Week 8
  Mean Change From Baseline (CFB) in IPSS/AUASS: −6.8
  Mean Change From Baseline (CFB) in Maximum Flow Rate: 3.4 mL/s
